In patent publication EP3212201B1, “NUCLEOSIDE KINASE INHIBITORS” (BCI Pharma, priority 2014, dated 2016):

Columns and labels:
FGFR1 = FGFR1 (Homo sapiens, UniProt P11362); assay: FRET-based coupled-enzyme protein kinase inhibition assay; format: biochemical; conditions: compound at 10 µM, 1% DMSO
In short: (§1)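 FRET peptide (coumarin donor, fluorescein acceptor) was phosphorylated by each kinase in 50 mM HEPES pH 7.5, 10 mM MgCl2, 1 mM EDTA, 0.01% BRIJ-35 for 60 min at room temperature. ATP was at apparent Km, compounds in 1% DMSO. Protease development reagent then cleaved non-phosphorylated peptide over 60 min.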

JAK3 = target: T1, JAK3 (Homo sapiens, UniProt P52333); assay: as above; format: biochemical; conditions: compound at 10 µM, 1% DMSO
T1 sequence (P52333 1-1124): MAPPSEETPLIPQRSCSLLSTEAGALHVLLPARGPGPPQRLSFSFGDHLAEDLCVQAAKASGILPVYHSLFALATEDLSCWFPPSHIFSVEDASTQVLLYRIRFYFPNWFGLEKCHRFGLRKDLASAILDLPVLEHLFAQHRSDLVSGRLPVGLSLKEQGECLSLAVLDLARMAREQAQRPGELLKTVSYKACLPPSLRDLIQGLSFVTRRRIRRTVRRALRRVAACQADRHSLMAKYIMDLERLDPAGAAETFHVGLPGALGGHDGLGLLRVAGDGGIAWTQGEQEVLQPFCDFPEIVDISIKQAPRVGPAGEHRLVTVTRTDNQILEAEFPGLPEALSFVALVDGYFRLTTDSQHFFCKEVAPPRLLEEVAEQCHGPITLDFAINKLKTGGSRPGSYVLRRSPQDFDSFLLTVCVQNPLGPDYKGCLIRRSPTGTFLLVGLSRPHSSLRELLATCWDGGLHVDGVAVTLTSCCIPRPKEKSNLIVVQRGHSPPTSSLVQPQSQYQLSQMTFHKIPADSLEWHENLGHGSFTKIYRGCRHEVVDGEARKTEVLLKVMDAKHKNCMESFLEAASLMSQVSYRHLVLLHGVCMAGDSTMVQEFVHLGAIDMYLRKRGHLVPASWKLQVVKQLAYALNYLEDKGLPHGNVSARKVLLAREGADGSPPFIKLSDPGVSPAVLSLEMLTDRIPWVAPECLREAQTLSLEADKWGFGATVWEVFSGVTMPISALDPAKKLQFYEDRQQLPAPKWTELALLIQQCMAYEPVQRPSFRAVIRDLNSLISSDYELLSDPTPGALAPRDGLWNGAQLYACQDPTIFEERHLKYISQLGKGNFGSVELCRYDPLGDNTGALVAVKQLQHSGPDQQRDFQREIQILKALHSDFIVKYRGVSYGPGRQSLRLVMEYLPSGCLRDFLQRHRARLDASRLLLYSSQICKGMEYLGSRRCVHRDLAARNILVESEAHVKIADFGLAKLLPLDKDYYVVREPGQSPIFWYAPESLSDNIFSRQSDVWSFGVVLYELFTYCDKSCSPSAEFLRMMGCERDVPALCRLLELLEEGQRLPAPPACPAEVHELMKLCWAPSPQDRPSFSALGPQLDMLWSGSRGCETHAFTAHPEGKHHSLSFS
In short: as §1

FGFR1, sequence (P11362 22-822, species assumed): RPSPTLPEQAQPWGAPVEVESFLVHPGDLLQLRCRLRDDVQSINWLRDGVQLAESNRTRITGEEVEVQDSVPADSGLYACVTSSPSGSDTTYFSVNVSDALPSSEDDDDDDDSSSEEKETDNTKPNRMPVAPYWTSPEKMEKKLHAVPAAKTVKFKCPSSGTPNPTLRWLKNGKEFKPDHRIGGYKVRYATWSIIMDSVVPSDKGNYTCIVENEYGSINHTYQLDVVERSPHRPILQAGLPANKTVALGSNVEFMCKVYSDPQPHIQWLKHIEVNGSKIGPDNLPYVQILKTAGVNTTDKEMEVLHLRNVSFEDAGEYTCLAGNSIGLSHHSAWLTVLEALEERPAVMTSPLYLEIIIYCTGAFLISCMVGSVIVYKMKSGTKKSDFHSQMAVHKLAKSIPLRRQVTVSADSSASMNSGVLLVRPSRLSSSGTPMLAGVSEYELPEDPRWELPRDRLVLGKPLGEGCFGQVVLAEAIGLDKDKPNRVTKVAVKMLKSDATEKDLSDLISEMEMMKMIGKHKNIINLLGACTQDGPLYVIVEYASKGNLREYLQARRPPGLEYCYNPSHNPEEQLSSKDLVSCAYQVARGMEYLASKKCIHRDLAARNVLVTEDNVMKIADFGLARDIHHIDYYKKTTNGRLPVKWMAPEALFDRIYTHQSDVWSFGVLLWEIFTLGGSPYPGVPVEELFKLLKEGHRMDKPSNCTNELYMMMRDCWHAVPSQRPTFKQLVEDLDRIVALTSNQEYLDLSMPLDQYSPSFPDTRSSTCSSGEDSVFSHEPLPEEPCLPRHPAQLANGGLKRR

| SMILES | inhibition at 10 µM (FGFR1) | inhibition at 10 µM (JAK3) |
| --- | --- | --- |
| Nc1ncnc2c1ncn2[C@@H]1O[C@H](COC(=O)N[C@@H]2CCN(Cc3ccccc3)C2)[C@@H](O)[C@H]1O [Compound C10] | 20% | -2% |
| Nc1ncnc2c1ncn2[C@@H]1O[C@H](COC(=O)N2CCC[C@H]2CO)[C@@H](O)[C@H]1O [Compound C9] | 3% | -8% |
| Nc1ncnc2c1ncn2[C@@H]1O[C@H](COC(=O)NCCN2CCCC2=O)[C@@H](O)[C@H]1O [Compound C22] | 0% | -8% |
| CC(C)N1CCC(NC(=O)OC[C@H]2O[C@@H](n3cnc4c(N)ncnc43)[C@H](O)[C@@H]2O)CC1 [Compound C19] | 6% | -2% |
| Nc1ncnc2c1ncn2[C@@H]1O[C@H](COC(=O)N2CCN(CCc3ccccc3)CC2)[C@@H](O)[C@H]1O [Compound C26] | 9% | -7% |
| C[C@@H](NC(=O)OC[C@H]1O[C@@H](n2cnc3c(N)ncnc32)[C@H](O)[C@@H]1O)c1ccc(Cl)cc1 [Compound C4] | 6% | 6% |
| Nc1ncnc2c1ncn2[C@@H]1O[C@H](COC(=O)N2CCN(Cc3ccccc3)CC2CO)[C@@H](O)[C@H]1O (some centres unmarked) [Compound C13] | 5% | 1% |
| Nc1ncnc2c1ncn2[C@@H]1O[C@H](COC(=O)NC[C@H](O)CO)[C@@H](O)[C@H]1O [Compound C8] | 26% | -2% |
| Nc1ncnc2c1ncn2[C@@H]1O[C@H](COC(=O)NCCCc2nc3ccccc3[nH]2)[C@@H](O)[C@H]1O [Compound C1] | 21% | -2% |

Continued, values first:

| inhibition at 10 µM (FGFR1) | inhibition at 10 µM (JAK3) | SMILES |
| --- | --- | --- |
| 13% | 0% | Nc1ncnc2c1ncn2[C@@H]1O[C@H](COC(=O)N2CCC(Cc3ccc(F)cc3)C2)[C@@H](O)[C@H]1O (some centres unmarked) [Compound C66] |
| 16% | 2% | Nc1ncnc2c1ncn2[C@@H]1O[C@H](COC(=O)N2CCN(C(=O)N3CCOCC3)CC2)[C@@H](O)[C@H]1O [Compound C89] |
| 0% | -2% | Nc1ncnc2c1ncn2[C@@H]1O[C@H](COC(=O)N2CCS(=O)(=O)CC2)[C@@H](O)[C@H]1O [Compound C100] |
| 9% | -1% | CS(=O)(=O)N1CC2(CCN(C(=O)OC[C@H]3O[C@@H](n4cnc5c(N)ncnc54)[C@H](O)[C@@H]3O)CC2)c2ccccc21 [Compound C98] |
| 4% | -12% | CN(C)CCNC(=O)OC[C@H]1O[C@@H](n2cnc3c(N)ncnc32)[C@H](O)[C@@H]1O [Compound C85] |
| 1% | -8% | N#CCCN1CCN(C(=O)OC[C@H]2O[C@@H](n3cnc4c(N)ncnc43)[C@H](O)[C@@H]2O)CC1 [Compound C70] |
| 9% | 2% | CN1CCN(CCNC(=O)OC[C@H]2O[C@@H](n3cnc4c(N)ncnc43)[C@H](O)[C@@H]2O)CC1 [Compound C46] |
